Data published in patent publication US20160242416A1, “FUNGICIDAL ISOXAZOLINE CARBINOLS” (E I DU PONT DE NEMOURS AND COMPANY, priority 2015, published 2016).
Where two headings read alike, the source gives them in different places.

How the values were obtained:
Phytophthora infestans = format: in vivo; settings: tomato late blight, 100 = 100% disease control, 0 = no control
[1] = tested on: Erysiphe graminis f sp. tritici; assay: Test G: wheat powdery mildew, preventive spray on wheat seedlings; settings: wheat powdery mildew, 100 = 100% disease control, 0 = no control
Stagonospora nodorum = assay: Test D: wheat glume blotch, preventive spray on wheat seedlings; settings: wheat glume blotch, 100 = 100% disease control, 0 = no control
Text: (§1) General protocol for preparing test solutions for Tests A-G: the test compounds were first dissolved in acetone in an amount equal to 3% of the final volume and then suspended at the desired concentration (in ppm) in acetone and purified water (50/50 mix by volume) containing 250 ppm of the surfactant PEG400 (polyhydric alcohol esters). The resulting test suspensions were then used in Tests A-G. Compounds were sprayed at a concentration of 50 ppm (*) or 10 ppm to the point of run-off on the test plants, the equivalent of a rate of 200 g/ha or 40 g/ha, respectively.
The test solution was sprayed to the point of run-off on wheat seedlings. The following day the seedlings were inoculated with a spore suspension of Stagonospora nodorum (also known as Septoria nodorum; the causal agent of wheat glume blotch) and incubated in a saturated atmosphere at 20° C. for 48 h, and then moved to a growth chamber at 20° C. for 6 days, after which time visual disease ratings were made.
(§2) Compounds with an asterisks (*) were applied at a concentration of 50 ppm, otherwise test solutions were applied at 10 ppm.

[2] = tested on: Puccinia recondita f sp. tritici; assay: Test F: wheat leaf rust, preventive spray on wheat seedlings; settings: wheat leaf rust, 100 = 100% disease control, 0 = no control
Zymoseptoria tritici = assay: Test E: wheat leaf blotch, preventive spray on wheat seedlings; settings: wheat leaf blotch, 100 = 100% disease control, 0 = no control
Botrytis cinerea = assay: Test B: gray mold, preventive spray on tomato seedlings; settings: gray mold on tomato, 100 = 100% disease control, 0 = no control
Text: as §1
The test solution was sprayed to the point of run-off on tomato seedlings. The following day the seedlings were inoculated with a spore suspension of Botrytis cinerea (the causal agent of gray mold on many crops) and incubated in a saturated atmosphere at 20° C. for 48 h, and moved to a growth chamber at 27° C. for 2 days, after which time visual disease ratings were made.
as §2

Plasmopara viticola = assay: Test A: grape downy mildew, preventive spray on grape seedlings; format: in vivo; settings: 100 = 100% disease control, 0 = no control
Text: A dash (-) indicates no test results.

SMILES | Test C rating (% disease control) (Phytophthora infestans; 10 ppm) [%] | Test G rating (% disease control) ([1]; 10 ppm) [%] | Test D rating (% disease control) (Stagonospora nodorum; 10 ppm) [%] | Test F rating (% disease control) ([2]; 10 ppm) [%] | Test E rating (% disease control) (Zymoseptoria tritici; 10 ppm) [%] | Test B rating (% disease control) (Botrytis cinerea; 10 ppm) [%] | Test A rating (% disease control) (Plasmopara viticola; 10 ppm) [%] | Test C rating (% disease control) (Phytophthora infestans; 50 ppm (asterisk)) [%] | Test G rating (% disease control) ([1]; 50 ppm (asterisk)) [%] | Test D rating (% disease control) (Stagonospora nodorum; 50 ppm (asterisk)) [%] | Test F rating (% disease control) ([2]; 50 ppm (asterisk)) [%] | Test E rating (% disease control) (Zymoseptoria tritici; 50 ppm (asterisk)) [%] | Test B rating (% disease control) (Botrytis cinerea; 50 ppm (asterisk)) [%] | Test A rating (% disease control) (Plasmopara viticola; 50 ppm (asterisk)) [%]
OC(Cn1cncn1)(C1=NOC(COc2ccc(Cl)cc2)C1)c1ccc(Cl)cc1 (single isomer, unassigned) [Compound 61] | 0 | 100 | 94 | 100 | 99 | 0 | 4 | – | – | – | – | – | – | –
OC(Cn1cncn1)(C1=NOC(Cn2ccc(-c3ccc(C(F)(F)F)cc3)n2)C1)c1ccc(Cl)cc1 (single isomer, unassigned) [Compound 68] | 0 | 95 | 0 | 99 | 2 | 0 | 3 | – | – | – | – | – | – | –
CCCC(O)(Cn1cncn1)C1=NOC(c2ccc(Cl)cc2)C1 (single isomer, unassigned) [Compound 82] | 0 | 100 | 99 | 98 | 0 | 33 | 1 | – | – | – | – | – | – | –
CC(C)C(O)(Cn1cncn1)C1=NOC(c2ccc(Cl)cc2)C1 (single isomer, unassigned) [Compound 3] | 0 | 100 | 100 | 97 | 0 | 46 | 9 | – | – | – | – | – | – | –
OC(Cn1cncn1)(C1=NOC(Cn2ccc(-c3ccc(Cl)cc3)n2)C1)c1ccc(Cl)cc1 (single isomer, unassigned) [Compound 65] | 0 | 98 | 0 | 100 | 0 | 0 | 3 | – | – | – | – | – | – | –
OC(Cn1cncn1)(C1=NOC(Cn2ccc(-c3ccc(C(F)(F)F)cc3)n2)C1)c1ccc(Cl)cc1 (single isomer, unassigned) [Compound 67] | 0 | 99 | 0 | 100 | 0 | 0 | 13 | – | – | – | – | – | – | –
CC(O)(Cn1cncn1)C1=NOC(c2ccc(Cl)cc2)C1 (single isomer, unassigned) [Compound 35] | – | – | – | – | – | – | – | 0 | 100 | 63 | 40 | 0 | 0 | 21
CC(C)C(O)(Cn1cncn1)C1=NOC(c2ccc(Cl)cc2)C1 (single isomer, unassigned) [Compound 4] | 0 | 99 | 100 | 98 | 0 | 9 | 0 | – | – | – | – | – | – | –
OC(Cn1cncn1)(C1=NOC(Cn2ccc(-c3ccc(Cl)cc3)n2)C1)c1ccc(Cl)cc1 (single isomer, unassigned) [Compound 66] | 0 | 97 | 0 | 98 | 1 | 0 | 3 | – | – | – | – | – | – | –
OC(Cn1cncn1)(C1=NOC(COc2ccc(C(F)(F)F)cc2)C1)c1ccc(Cl)cc1 (single isomer, unassigned) [Compound 63] | 0 | 100 | 41 | 100 | 97 | 0 | 3 | – | – | – | – | – | – | –
OC(Cn1cncn1)(C1=NOC(c2ccc(Cl)cc2)C1)c1ccc(F)cc1F (single isomer, unassigned) [Compound 131] | – | – | – | – | – | – | – | 0 | 100 | 100 | 100 | 5 | 0 | –
